Results taken from PubChem BioAssay (NCI).
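Growth conditions: 96-well plates. Treatment: test compound, 48 hours, 5 concentrations. Analysis: linear interpolation between bracketing concentrations; unreached endpoints set to highest concentration. GI50 marks 50% less growth. TGI is the concentration that stops growth completely.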

How the values were obtained:
Assay in all cases: growth of human tumour cells (NCI), 48 h
A549 NSCLC = system: A549 NSCLC
EKVX NSCLC = system: EKVX NSCLC
HCT-15 colon = system: HCT-15 colon
OVCAR-8 ovarian = system: OVCAR-8 ovarian
RPMI-8226 leukemia = system: RPMI-8226 leukemia
U251 CNS = system: U251 CNS
UACC-62 melanoma = system: UACC-62 melanoma
MALME-3M melanoma = system: MALME-3M melanoma
NCI-H226 lung = system: NCI-H226 lung
NCI-H23 lung = system: NCI-H23 lung

Row | SMILES | GI50 (A549 NSCLC) [µM] | TGI (A549 NSCLC) [µM] | GI50 (EKVX NSCLC) [µM] | TGI (EKVX NSCLC) [µM] | GI50 (HCT-15 colon) [µM] | TGI (HCT-15 colon) [µM] | GI50 (OVCAR-8 ovarian) [µM] | TGI (OVCAR-8 ovarian) [µM] | GI50 (RPMI-8226 leukemia) [µM] | TGI (RPMI-8226 leukemia) [µM] | GI50 (U251 CNS) [nM] | TGI (U251 CNS) [µM] | GI50 (UACC-62 melanoma) [nM] | TGI (UACC-62 melanoma) [µM] | TGI (MALME-3M melanoma) [µM] | TGI (NCI-H226 lung) [µM] | TGI (NCI-H23 lung) [µM] | GI50 (MALME-3M melanoma) [µM] | GI50 (NCI-H23 lung) [nM] | GI50 (NCI-H226 lung) [µM]
1 | COc1cccc(CCNC(=O)CC(c2ccccc2)(c2ccccc2)c2ccccc2)c1 | 4.11 | 96.5 | 22.7 | > 100 | > 100 | > 100 | 4.98 | 47.7 | 4.98 | > 100 | 4860 | 55.6 | 613 | > 100 | – | – | – | – | – | –
2 | CC12CC/C(=N/NC(N)=O)C3C1CCCC32 | – | > 100 | – | – | – | > 100 | – | > 100 | – | > 100 | – | > 100 | – | > 100 | > 100 | > 100 | > 100 | – | – | –
3 | CCC(C)C(=O)O[C@H]1C(=O)O[C@@H]2C[C@H]3C(C)=CC(=O)[C@@H](O)[C@]3(C)[C@H]3[C@@H](O)[C@H](O)[C@@]4(C)OC[C@]32[C@@H]14 (stereo not given in full) | – | 10.7 | – | – | – | 0.071 | – | < 0.0302 | – | < 0.0266 | – | < 0.0345 | – | < 0.0434 | < 0.024 | < 0.0259 | < 0.01 | – | – | –
4 | CN(C)CCCOc1ccc(/C=C2/CCC/C(=C/c3ccc(OCCCN(C)C)cc3)C2=O)cc1 | – | 6.28 | – | 6.84 | – | 2.5 | – | 6.5 | – | 3.43 | – | 2.13 | – | 3.74 | 3.32 | – | 3.63 | – | – | –
5 | CCC[CH2][Sn]1([CH2]CCC)[O]C(=O)CN=C(C)c2ccccc2[O]1 | 3 | 9.62 | 1.48 | 2.99 | 1.15 | 2.46 | 1.39 | 2.83 | 0.468 | 2.8 | 1100 | 2.3 | 922 | 2.21 | 2.3 | – | 1.78 | 1.04 | 429 | –
6 | CC12CCCC(C#N)(C1)OC2=O (stereo not given) | – | > 100 | – | > 100 | – | – | – | > 100 | – | – | – | > 100 | – | > 100 | > 100 | > 100 | > 100 | – | – | –
7 | Cc1cc2c(C(=O)NCC#N)cccc2n1-c1nc2c(c(NCc3ccccc3)n1)CCCC2 | 0.312 | 1.28 | 0.329 | 2.4 | 0.192 | 0.404 | 0.34 | 1.98 | – | – | 227 | 0.521 | 203 | 0.482 | 0.618 | 0.748 | 1.19 | 0.201 | 285 | 0.293
8 | CC(=O)N(C)c1cc(NCc2ccccc2)ccc1OCc1ccccc1 | – | 36.7 | – | 42.3 | – | 39.2 | – | 32.7 | – | – | – | 32.9 | – | 31.8 | 35.3 | 35.9 | 57.1 | – | – | –
9 | O=C(CN(Cc1ccccc1)Cc1ccccc1)N1CCc2c([nH]c3ccccc23)C1c1cccnc1 (stereo not given) | – | > 100 | – | > 100 | – | > 100 | – | > 100 | – | 4.53 | – | 26.7 | – | 30.7 | – | – | 79.3 | – | – | –
10 | O=CC1CCC=CC1NC(=O)OCc1ccccc1 (stereo not given) | – | > 100 | – | > 100 | – | > 100 | – | 52.3 | – | > 100 | – | > 100 | – | > 100 | – | > 100 | > 100 | – | – | –
11 | N#CC(C(=O)/C(=N/NC(=O)c1ccccc1O)C(C#N)c1ccc(Br)cc1)c1ccc(Br)cc1 (stereo not given) | – | 39.9 | – | 30 | – | 25.5 | – | 19.8 | – | – | – | 23.7 | – | 28.2 | 24.6 | 19.1 | 16.4 | – | – | –
12 | Nc1c(C(=O)c2ccc(C#CCN3CCOCC3)cc2)cnn1-c1ccc(F)cc1 | > 25 | > 25 | – | – | > 25 | > 25 | > 25 | > 25 | > 25 | > 25 | > 25000 | > 25 | > 25000 | > 25 | > 25 | > 25 | > 25 | > 25 | > 25000 | > 25
13 | COC1=CC(c2ccc[nH]2)=N/C1=C\c1[nH]c(C)c(C(=O)Oc2ccccc2)c1C | 0.344 | 2.01 | 0.164 | 2.97 | – | – | 0.288 | 1.45 | 0.284 | 2.02 | 148 | 1.6 | 198 | 0.427 | – | 1.96 | 1.95 | – | 227 | 0.438
14 | C=C1C(=O)O[C@@H]2C[C@@H]1CC[C@]1(C)O[C@H]1CC/C(C)=C/CC[C@@]2(C)O | 25.3 | 83.7 | 23.4 | 80.2 | 8.51 | 21.3 | 22.3 | 57.8 | 6.58 | > 100 | 15500 | 28.9 | 17500 | 36.4 | – | 59.2 | 58.4 | – | 20900 | 21.7
15 | Clc1ccc(-c2nc3c(-c4ccccc4)nc(-c4ccccc4)cn3c2-c2ccc(Cl)cc2)cc1 | > 100 | > 100 | > 100 | > 100 | > 100 | > 100 | > 100 | > 100 | > 100 | > 100 | > 100000 | > 100 | > 100000 | > 100 | > 100 | – | > 100 | > 100 | > 100000 | –
16 | COc1ccc(C2=NN(C=O)C(c3ccc(OS(=O)(=O)c4ccc(C)cc4)c(OC)c3)C2)cc1 (stereo not given) | 9.42 | > 100 | – | – | 4.19 | > 100 | 10.2 | > 100 | 4.12 | > 100 | – | – | 3730 | > 100 | 49.3 | > 100 | > 100 | 7.09 | 4580 | 8.81
17 | Cn1nc(-c2ccccc2)c2c(/C=C/c3ccc(Cl)cc3)onc2c1=O | – | 35.4 | – | > 100 | – | > 100 | – | 84.3 | – | > 100 | – | > 100 | – | > 100 | – | – | > 100 | – | – | –
18 | CCSc1nc(NC(C)c2ccccc2)c2cnn(CO)c2n1 (stereo not given) | > 100 | > 100 | – | – | 70.2 | > 100 | 99.3 | > 100 | > 100 | > 100 | 74800 | > 100 | 26600 | > 100 | 84.9 | > 100 | > 100 | 29.6 | 18400 | 47
19 | COC(=O)C(=NNc1ccccc1[N+](=O)[O-])C(=O)OC | – | > 100 | – | > 100 | – | – | – | > 100 | – | – | – | > 100 | – | – | > 100 | > 100 | > 100 | – | – | –
20 | COc1ccc(NC(=S)C#N)cc1 | – | > 100 | – | – | – | > 100 | – | > 100 | – | > 100 | – | > 100 | – | > 100 | – | > 100 | > 100 | – | – | –
21 | O=C1Nc2ccc(O)cc2/C1=C\c1ccncc1 | 26.2 | 82.8 | 10.6 | 56 | 11 | 39 | 25.4 | > 100 | 34.1 | > 100 | 10300 | 23.1 | 12200 | 26.4 | – | – | 62.4 | – | 25100 | –
22 | CCOC(=O)NC(=O)c1cn(CCCCCCCCCCC(=O)NCCCN2CCN(CCCNC(=O)CCCCCCCCCCn3cc(C(=O)NC(=O)OCC)c(=O)[nH]c3=O)CC2)c(=O)[nH]c1=O | – | > 100 | – | – | – | > 100 | – | > 100 | – | – | – | > 100 | – | > 100 | > 100 | – | > 100 | – | – | –
23 | Cc1cc2nc3c(=O)[nH]c(=O)nc-3n(CC(O)C(O)C(O)CO)c2cc1N (stereo not given) | – | > 100 | – | > 100 | – | > 100 | – | > 100 | – | > 100 | – | – | – | > 100 | – | > 100 | > 100 | – | – | –
24 | c1ccc(COCC[P+](c2ccccc2)(c2ccccc2)c2ccccc2)cc1 | 0.584 | 10.1 | – | – | 14.2 | > 100 | 1.67 | 10.8 | 0.242 | 1.9 | 869 | 11.7 | – | – | – | 29.8 | 6.75 | – | 664 | 1.22
25 | C/C=C(\C)c1cc(=O)c2c(C)cc3c(c2o1)C(OC)(OC(C)=O)c1c(O)c(C2CC(C)(N(C)C)C(OC(C)=O)C(C)O2)cc(C2CC(N(C)C)C(OC(C)=O)C(C)O2)c1C3=O (stereo not given) | – | > 100 | – | 11.6 | – | 6.9 | – | – | – | – | – | > 20.4 | – | – | 2.37 | 5.03 | 2.42 | – | – | –
26 | CS(=O)(=O)O[C@H]1C(=O)N(c2cc3c4ccccc4ccc3c3ccccc23)[C@@H]1c1ccccn1 | 0.665 | > 100 | – | – | 0.419 | > 100 | 0.712 | > 100 | 0.467 | > 100 | 685 | > 100 | 347 | > 100 | – | > 100 | > 100 | – | 981 | 5.36
